This note sets out measurements from patent US7795226B2, “Control of radiation injury” (Biotempt B.V., priority 2006, dated 2010).

The first experiment deals with cell-cycle marker pCDG and auxin-responsive marker DR5::GUS. In words: Arabidopsis thaliana seedling cell-cycle analysis (GUS markers). To be noted: Results from Examples 9 and 10. How it is done: To further study anti-cell-cycle activity of various oligopeptides, a proliferation experiment in Arabidopsis Thaliana seedlings was performed. The aim was to test a group of 140 oligopeptides of varying length for their effect on plant marker gene expression during rapid growth when avid cell division occurs.
The peptides were re-suspended in 1× Phosphate Buffer Saline (PBS) pH 8 to a final concentration of 5 mg/ml. The obtained solutions were then divided through 96-well round bottom plates (Corning Incorporated) at 40 microliters per well. Plates were stored before use at […] for four days. Seeds of Arabidopsis thaliana ecotype Ws-0 were surface sterilized in 2% commercial bleach (Gloria) for ten minutes and washed five times with sterile MQ water. The seeds were then re-suspended with 0.1% agar and plated on MS20 plates supplemented with 80 mg/l Kanamycin.
The plates were placed at […] for two nights and then transferred to a climate room at […] and a 16/8 hours photoperiod. After four days of growth, the seedlings were transferred to 96-well plates containing the peptide solutions (four seedlings per well) and incubated for four and eight hours.
For this experiment, Arabidopsis homozygous seedlings harboring two reporter genes fused to GUS were used. […] After incubation with the compounds, the seedlings were stained for GUS. The staining reaction was performed in 100 mM sodium phosphate buffer (pH 7.0) that contained 10 mM EDTA, 10% DMSO, 0.1% Triton X-100, 2 mM X-Gluc, 0.5 mM K3Fe(CN)6 and 0.5 mM K4Fe(CN)6 at […] for 16 hours. […] Seedlings were fixed and cleared in chloral hydrate solution for detailed microscopic observation and photography under a microscope equipped with DIC optics.
Peptides were tested for an effect on marker gene expression on rapidly growing Arabidopsis young seedlings. This was monitored by changes on GUS distribution in different organs: root, root-hypocotyl transition zone and cotyledons.
As to AFTV (CRP-derived peptide), the “identified as useful peptide for treatment of radiation injury from cell-cycle studies in plants and in vitro proliferation studies” value (“identified as useful peptide” for short) is given as “useful”.
As for “APSL (human beta-catenin-derived peptide)”, the “identified as useful peptide” value is “useful”.
Still for that read-out and setting: under AVAL stands “useful”.
As for CPRGVNP, the “identified as useful peptide” value is listed as “useful”.
Take CPVQ (tetramer peptide): the “identified as useful peptide” value is listed as “useful”.
Regarding DINGFLPAL, the “identified as useful peptide” value is on record as “useful”.
On the same count and under the same terms, under EALE (tetramer peptide) stands “useful”; under EMFQ (tetramer peptide), “useful”.
On to EPPE (tetramer peptide), for which the “identified as useful peptide” value is “useful”.
EVVR (tetramer peptide): the “identified as useful peptide” value was “useful”.
Turning to FSYA (CRP-derived peptide), the “identified as useful peptide” value is given as “useful”.
Take FVLS (CRP-derived peptide): the “identified as useful peptide” value is listed as “useful”.
On to FWVD (CRP-derived peptide), for which the “identified as useful peptide” value is reported as “useful”.
On to “GVLC (human beta-catenin-derived peptide)”, for which the “identified as useful peptide” value is reported as “useful”.
For the substance “ITTL (human beta-catenin-derived peptide)”, the “identified as useful peptide” value is “useful”.
As to LCFL, the “identified as useful peptide” value is reported as “useful”.
With LGTL, the “identified as useful peptide” value is given as “useful”.
As to LHNL, the “identified as useful peptide” value is “useful”.
On the same count and under the same terms, under LNEAL (pentamer peptide) stands “useful”.
Same read-out and setting: under “LNTI (human beta-catenin-derived peptide)” stands “useful”.
As to LQAV (tetramer peptide), the “identified as useful peptide” value is listed as “useful”.
Same read-out and setting: under LQGA (tetramer peptide) stands “useful”; under LTCDDP, “useful”; under MGGTWA, “useful”.
With MTEV (tetramer peptide), the “identified as useful peptide” value is reported as “useful”.
On the same count and under the same terms, under “NLIN (human beta-catenin-derived peptide) [NUN]” stands “useful”.
Still for that read-out and setting: under NMWD (CRP-derived peptide) stands “useful”.
Take PGCP: the “identified as useful peptide” value is “useful”.
Still for that read-out and setting: under “QALG (human beta-catenin-derived peptide)” stands “useful”.
The same measure, in the same setting: under “QLLG (human beta-catenin-derived peptide)” stands “useful”; under QPLAPLVG, “useful”; under QVVC (tetramer peptide), “useful”.
In the case of RLPG, the “identified as useful peptide” value was “useful”.
Same read-out and setting: under RVLQ (tetramer peptide) stands “useful”; under “SPIE (human beta-catenin-derived peptide)”, “useful”; under TLAVE (beta-hCG-derived peptide), “useful”.
Same read-out and setting: under VCNYRDV stands “useful”; under VEGNL (pentamer peptide), “useful”; under VGGI, “useful”.
For the substance VGQL (tetramer peptide), the “identified as useful peptide” value is “useful”.
The same measure, in the same setting: under VLPAPLQ (septamer peptide) stands “useful”.
Still for that read-out and setting: under “YAIT (human beta-catenin-derived peptide)” stands “useful”.

The same experiment, now with this note: seedlings incubated four and eight hours; 5 mg/ml peptide solution.
Turning to DINGFLPAL, the “effect on cell-cycle marker (pCDG) and auxin-responsive marker (DR5::GUS) (in words)” value was “less consistent and time-dependent effect”.
